Results from ChEMBL document CHEMBL1149958, “Conformationally restricted piperidinyl benzamides as 5-HT3 receptor antagonists” (Bioorg Med Chem Lett, 1992).

Columns and labels:
Rattus norvegicus = assay: Antagonist potency towards serotonin 5-HT3 receptor was determined by inhibition of 5-HT induced bradycardia (Bezold-Jarisch reflex) in anaesthetized rat; format: functional; conditions: for ED50: Rattus norvegicus, read-out: ID50 (the source's name)
[1] = pKA value was determined; format: physicochemical

pKa [1]	Compound	ID50 (Rattus norvegicus)	ED50 (Rattus norvegicus)
	COc1cc(N)c(Cl)cc1C(=O)NC1CCN2CCCC2C1 (stereo in doubt; 4b)	0.024 mg/kg	
6.3	COc1cc(N)c(Cl)cc1C(=O)NC1CCN2CCOCC2C1 (stereo unspecified)		0.017 mg/kg
	COc1cc(N)c(Cl)cc1C(=O)NC1CCN2C(C)CCC2C1 (stereo unspecified)		0.012 mg/kg
	CCN(CC)CCNC(=O)c1cc(Cl)c(N)cc1OC [METOCLOPRAMIDE]		0.5 mg/kg
	COc1cc(N)c(Cl)cc1C(=O)NC1CCN2C(C)COCC2C1 (stereo unspecified)		0.0095 mg/kg
	COc1cc(N)c(Cl)cc1C(=O)NC1CCN2CCCC2C1 (stereo in doubt; 4a)	>1 mg/kg	
	CN1[C@@H]2CC[C@H]1C[C@@H](OC(=O)c1c[nH]c3ccccc13)C2 [TROPISETRON]		0.0014 mg/kg
9.2	COc1cc(N)c(Cl)cc1C(=O)NC1CCN2C(C)CCCC2C1 (stereo unspecified) [BRL-20627]		0.225 mg/kg
	COc1cc(N)c(Cl)cc1C(=O)NC1CC(C)N2CCCC2C1 (stereo unspecified)		0.29 mg/kg
